# In patent US10765114B2, “4-amino-6-(pyridyl and 2-substitutedphenyl)-picolinates and 6-amino-2-(pyridyl and 2-substitutedphenyl)-pyrimidine-4-carboxylates and their use as herbicides” (Dow AgroSciences LLC, priority 2013, dated 2020):
# Where two headings read alike, the source gives them in different places.
# Legend:
# [1] = tested on: Key Grass and Sedge Weeds as well as Grass Crops; assay: Post-Emergent Test II (Table 6); format: in vivo; conditions: for pest or weed control at 140 g/ha: post-emergence, 336 h, 14 days after application; for Visual Growth Reduction (%) 14 Days After Application, CYPSS: CYPSS (CYPES: yellow nutsedge, Cyperus esculentus); for Visual Growth Reduction (%) 14 Days After Application, ECHSS: ECHSS (ECHCG: barnyardgrass, Echinochloa crus-galli); for Visual Growth Reduction (%) 14 Days After Application, ORYSS: ORYSS (ORYSA: rice, Oryza sativa); for Visual Growth Reduction (%) 14 Days After Application, ORYSS / Visual Growth Reduction (%) 14 Days After Application, TRZSS / Visual Growth Reduction (%) 14 Days After Application, ZEAMX: crop; for Visual Growth Reduction (%) 14 Days After Application, SORVU: SORVU: johnsongrass (Sorghum vulgare); for Visual Growth Reduction (%) 14 Days After Application, TRZSS: TRZSS (TRZAS: wheat, spring, Triticum aestivum)
# Description: (§1) Seeds or nutlets of the desired test plant species were planted in Sun Gro Metro-Mix® 360 planting mixture, which typically has a pH of 6.0 to 6.8 and an organic matter content of about 30 percent, in plastic pots with a surface area of 64 square centimeters. When required to ensure good germination and healthy plants, a fungicide treatment and/or other chemical or physical treatment was applied. The plants were grown for 7-21 days in a greenhouse with an approximate 15 h photoperiod which was maintained at about 23-29° C. during the day and 22-28° C. during the night. Nutrients and water were added on a regular basis and supplemental lighting was provided with overhead metal halide 1000-Watt lamps as necessary. The plants were employed for testing when they reached the first or second true leaf stage.
# (§2) A weighed amount, determined by the highest rate to be tested, of each test compound was placed in a 25 mL glass vial and was dissolved in 4 mL of a 97:3 v/v mixture of acetone and DMSO to obtain concentrated stock solutions. […] The concentrated stock solutions obtained were diluted with 20 mL of an aqueous mixture containing acetone, water, isopropyl alcohol, DMSO, Atplus 411F crop oil concentrate, and Triton® X-155 surfactant in a 48.5:39:10:1.5:1.0:0.02 v/v ratio to obtain spray solutions containing the highest application rates. Additional application rates were obtained by serial dilution of 12 mL of the high rate solution into a solution containing 2 mL of 97:3 v/v mixture of acetone and DMSO and 10 mL of an aqueous mixture containing acetone, water, isopropyl alcohol, DMSO, Atplus 411F crop oil concentrate, and Triton X-155 surfactant in a 48.5:39:10:1.5:1.0:0.02 v/v ratio to obtain ½×, ¼×, ⅛× and 1/16× rates of the high rate. Compound requirements are based upon a 12 mL application volume at a rate of 187 liters per hectare (L/ha). Formulated compounds were applied to the plant material with an overhead Mandel track sprayer equipped with 8002E nozzles calibrated to deliver 187 L/ha over an application area of 0.503 square meters at a spray height of 18 inches (43 cm) above the average plant canopy height. Control plants were sprayed in the same manner with the solvent blank.
# (§3) The treated plants and control plants were placed in a greenhouse as described above and watered by subirrigation to prevent wash-off of the test compounds. After 14 days, the condition of the test plants as compared with that of the untreated plants was determined visually and scored on a scale of 0 to 100 percent where 0 corresponds to no injury and 100 corresponds to complete kill and presented as indicated in Table A. Some of the compounds tested, application rates employed, plant species tested, and results are given in Table 5.
# [2] = tested on: Key Broadleaf Weed and Crop Species; assay: Post-Emergent Test II (Table 5); format: in vivo; conditions: post-emergence, 336 h; for pest or weed control at 140 g/ha: application rate 140 (kg ai/ha; footnote: g ai/ha); for pest or weed control at 70 g/ha: application rate 70 (kg ai/ha; footnote: g ai/ha)
# Description: as §1, §2, §3
# [3] = Abutilon theophrasti, ABUTH: velvetleaf (Abutilon theophrasti), read-out: Visual Growth Reduction (%) 14 Days After Application ABUTH
# [4] = Amaranthus retroflexus, AMARE: redroot pigweed (Amaranthus retroflexus), read-out: Visual Growth Reduction (%) 14 Days After Application AMARE
# [5] = Brassica napus, BRSSS: oilseed rape, canola (Brassica napus), read-out: Visual Growth Reduction (%) 14 Days After Application BRSSS
# [6] = Chenopodium album, CHEAL: lambsquarters (Chenopodium album), read-out: Visual Growth Reduction (%) 14 Days After Application CHEAL
# [7] = Euphorbia heterophylla, EPHHL: wild poinsettia (Euphorbia heterophylla), read-out: Visual Growth Reduction (%) 14 Days After Application EPHHL
# [8] = Helianthus annuus, HELAN: sunflower (Helianthus annuus), read-out: Visual Growth Reduction (%) 14 Days After Application HELAN
# [9] = Viola tricolor, VIOTR: wild pansy (Viola tricolor), read-out: Visual Growth Reduction (%) 14 Days After Application VIOTR
compound,measurement,setting,value
Nc1c(F)c(-c2ccc(C(F)(F)F)nc2F)nc(C(=O)O)c1Cl [Compound 26],pest or weed control at 140 g/ha,"[1]; CYPSS, 140 g ai/ha, read-out: Visual Growth Reduction (%) 14 Days After Application CYPSS",0 to 29%
same,pest or weed control at 140 g/ha,"[1]; DIGSA: crabgrass (Digitaria sanguinalis), 140 g ai/ha, read-out: Visual Growth Reduction (%) 14 Days After Application DIGSA",0 to 29%
same,pest or weed control at 140 g/ha,"[1]; ECHSS, 140 g ai/ha, read-out: Visual Growth Reduction (%) 14 Days After Application ECHSS",0 to 29%
same,pest or weed control at 140 g/ha,"[1]; ORYSS (crop), 140 g ai/ha, read-out: Visual Growth Reduction (%) 14 Days After Application ORYSS",0 to 29%
same,pest or weed control at 140 g/ha,"[1]; SETFA: giant foxtail (Setaria faberi), 140 g ai/ha, read-out: Visual Growth Reduction (%) 14 Days After Application SETFA",0 to 29%
same,pest or weed control at 140 g/ha,"[1]; SORVU: grain sorghum (Sorghum vulgare), 140 g ai/ha, read-out: Visual Growth Reduction (%) 14 Days After Application SORVU",0 to 29%
same,pest or weed control at 140 g/ha,"[1]; TRZSS (crop), 140 g ai/ha, read-out: Visual Growth Reduction (%) 14 Days After Application TRZSS",0 to 29%
same,pest or weed control at 140 g/ha,"[1]; ZEAMX: maize, corn (Zea mays), 140 g ai/ha, read-out: Visual Growth Reduction (%) 14 Days After Application ZEAMX",0 to 29%
same,pest or weed control at 140 g/ha,[2]; [3],0 to 29%
same,pest or weed control at 140 g/ha,[2]; [4],0 to 29%
same,pest or weed control at 140 g/ha,[2]; [5],0 to 29%
same,pest or weed control at 140 g/ha,[2]; [6],0 to 29%
same,pest or weed control at 140 g/ha,[2]; [7],0 to 29%
same,pest or weed control at 140 g/ha,[2]; [8],45 to 59%
same,pest or weed control at 140 g/ha,[2]; [9],0 to 29%
"COC(=O)c1nc(-c2ccc(Cl)c(F)c2Cl)nc(N)c1OC [Compound 42, Methyl 6-amino-2-(2,4-dichloro-3-fluorophenyl)-5-methoxypyrimidine-4-carboxylate]","Visual Growth Reduction (%) 14 Days After Application, CYPSS",[1]; 70 g ai/ha,A (95-100)
same,"Visual Growth Reduction (%) 14 Days After Application, CYPSS",[1]; 140 g ai/ha,A (95-100)
same,"Visual Growth Reduction (%) 14 Days After Application, DIGSA","[1]; DIGSA: crabgrass (Digitaria sanguinalis), 70 g ai/ha",G (0-29)
same,"Visual Growth Reduction (%) 14 Days After Application, DIGSA","[1]; DIGSA: crabgrass (Digitaria sanguinalis), 140 g ai/ha",G (0-29)
same,"Visual Growth Reduction (%) 14 Days After Application, ECHSS",[1]; 70 g ai/ha,G (0-29)
same,"Visual Growth Reduction (%) 14 Days After Application, ECHSS",[1]; 140 g ai/ha,G (0-29)
same,"Visual Growth Reduction (%) 14 Days After Application, ORYSS",[1]; 70 g ai/ha,G (0-29)
same,"Visual Growth Reduction (%) 14 Days After Application, ORYSS",[1]; 140 g ai/ha,G (0-29)
same,"Visual Growth Reduction (%) 14 Days After Application, SETFA","[1]; SETFA: giant foxtail (Setaria faberi), 70 g ai/ha",G (0-29)
same,"Visual Growth Reduction (%) 14 Days After Application, SETFA","[1]; SETFA: giant foxtail (Setaria faberi), 140 g ai/ha",G (0-29)
same,"Visual Growth Reduction (%) 14 Days After Application, SORVU",[1]; 70 g ai/ha,G (0-29)
same,"Visual Growth Reduction (%) 14 Days After Application, SORVU",[1]; 140 g ai/ha,F (30-44)
same,"Visual Growth Reduction (%) 14 Days After Application, TRZSS",[1]; 70 g ai/ha,F (30-44)
same,"Visual Growth Reduction (%) 14 Days After Application, TRZSS",[1]; 140 g ai/ha,E (45-59)
same,"Visual Growth Reduction (%) 14 Days After Application, ZEAMX","[1]; ZEAMX: maize, corn (Zea mays), 70 g ai/ha",G (0-29)
same,"Visual Growth Reduction (%) 14 Days After Application, ZEAMX","[1]; ZEAMX: maize, corn (Zea mays), 140 g ai/ha",G (0-29)
same,pest or weed control at 70 g/ha,[2]; [3],95 to 100%
same,pest or weed control at 140 g/ha,[2]; [3],95 to 100%
same,pest or weed control at 70 g/ha,[2]; [4],95 to 100%
same,pest or weed control at 140 g/ha,[2]; [4],95 to 100%
same,pest or weed control at 70 g/ha,[2]; [5],95 to 100%
same,pest or weed control at 140 g/ha,[2]; [5],95 to 100%
same,pest or weed control at 70 g/ha,[2]; [6],95 to 100%
same,pest or weed control at 140 g/ha,[2]; [6],95 to 100%
same,pest or weed control at 70 g/ha,[2]; [7],30 to 44%
same,pest or weed control at 140 g/ha,[2]; [7],60 to 74%
same,pest or weed control at 70 g/ha,[2]; [8],85 to 94%
same,pest or weed control at 140 g/ha,[2]; [8],85 to 94%
same,pest or weed control at 70 g/ha,[2]; [9],60 to 74%
same,pest or weed control at 140 g/ha,[2]; [9],60 to 74%
